Reference: article PMC6105164 (Cancer Chemotherapy and Pharmacology, 2018)

Key:
[1] = clinical; settings: human, in vivo; for AUC(0-t): AUC12h
Method: This trial was a multiple-ascending dose trial in 28-day cycles. The doses used were 100, 200, 400, 600, 800, and 1000 mg. The initial dose (100 mg) was determined in accordance with the International Conference on Harmonisation of Technical Requirements for Registration of Pharmaceuticals for Human Use-S9 guideline. […] Patients received only the morning dose on day 1 for pharmacokinetics evaluation. […] Grades were determined according to the National Cancer Institute Common Terminology Criteria for Adverse Events (NCI-CTCAE v.4.0).
Blood samples were collected 10 times on day 1 (before drug administration, and 0.5-, 1-, 1.5-, 2-, 4-, 6-, 8-, 12-, and 24-h post-administration), once on days 4, 7, and 14, and 9 times on day 21 (before morning dose, and 0.5, 1, 1.5, 2, 4, 6, 8, and 12 h after morning dose but before evening dose). Urine samples were collected from patients who received 200, 600, or 1000 mg on day 1 (before drug administration, and 0–6-, 6–12-, 12–24-h post-administration).

[2] = system: RAS-mutated patients; settings: previous phase I/II trials in the USA; cited from earlier work

CC(C)=CCC/C(C)=C/CC/C(C)=C/CSc1ccccc1C(=O)O [Salirasib, S-trans, trans-farnesylthiosalicylic acid]
dose at which Cmax and AUCinf were maximal [1]: 800 mg
dose proportionality of Cmax and AUC12h (power model analyses) [1]: increased proportionally and in dose-dependent manners
half-life [1]: 3.5 to 9.11 h
mean Cmax across dose groups [1]: 1180 to 4870 ng/mL
time to Cmax, median, across dose groups [1]: 2.10 to 4.05 h
AUC(0-inf) ([1]; 100 mg): 4970 ± 1600 ng·h/mL
CL/F, mean ± SD ([1]; 100 mg): 21.6 ± 6.80 L/h
half-life ([1]; 100 mg): 3.81 ± 0.25 h
tmax, Range ([1]; 100 mg): 1.52 to 3.88 h
AUC(0-t) ([1]; 100 mg, mean ± SD): 4700 ± 1490 ng·h/mL
Cmax ([1]; 100 mg, Cmax, mean ± SD): 1340 ± 473 ng/mL
AUC12h, mean ± SD ([1]; 200 mg): 10,500 ± 4450 ng h/mL
AUC(0-inf) ([1]; 200 mg): 11400 ng·h/mL
CL/F, mean ± SD ([1]; 200 mg): 19.1 ± 7.35 L/h
Cmax, mean ± SD ([1]; 200 mg): 2830 ± 822 ng/mL
half-life ([1]; 200 mg): 4.16 ± 1.13 h
tmax, Range ([1]; 200 mg): 2.13 to 4.00 h
AUC(0-t) ([1]; 200 mg, mean ± SD): 10400 ng·h/mL
Cmax ([1]; 200 mg, Cmax, mean ± SD): 2610 ± 837 ng/mL
AUC12h, mean ± SD ([1]; 400 mg): 14,800 ± 3520 ng h/mL
AUC(0-inf) ([1]; 400 mg): 20300 ng·h/mL
CL/F, mean ± SD ([1]; 400 mg): 20.1 ± 3.83 L/h
Cmax, mean ± SD ([1]; 400 mg): 3630 ± 876 ng/mL
half-life ([1]; 400 mg): 4 ± 1.88 h
AUC(0-t) ([1]; 400 mg, mean ± SD): 18000 ng·h/mL
Cmax ([1]; 400 mg, Cmax, mean ± SD): 3250 ± 1440 ng/mL
AUC12h, mean ± SD ([1]; 600 mg): 18,700 ± 4710 ng h/mL
AUC(0-inf) ([1]; 600 mg): 18500 ng·h/mL
CL/F, mean ± SD ([1]; 600 mg): 33.0 ± 5.25 L/h
Cmax, mean ± SD ([1]; 600 mg): 4500 ± 1580 ng/mL
half-life ([1]; 600 mg): 3.5 ± 0.39 h
tmax, Range ([1]; 600 mg): 1.42 to 4.00 h
AUC(0-t) ([1]; 600 mg, mean ± SD): 16900 ng·h/mL
Cmax ([1]; 600 mg, Cmax, mean ± SD): 4870 ± 2390 ng/mL
Tmax ([1]; 600 mg, Median): 2.1 h
Tmax ([1]; 600 mg, Range): 2 to 4 h
AUC12h, mean ± SD ([1]; 800 mg): 16,300 ± 6240 ng h/mL
AUC(0-inf) ([1]; 800 mg): 26600 ng·h/mL
CL/F, mean ± SD ([1]; 800 mg): 30.7 ± 4.55 L/h
Cmax, mean ± SD ([1]; 800 mg): 4790 ± 1100 ng/mL
dose proportionality of Cmax and AUCinf (power model analyses) ([1]; 800 mg): increased proportionally until 400 mg in dose-dependent manners
half-life ([1]; 800 mg): 3.67 ± 0.81 h
tmax, Range ([1]; 800 mg): 2.02 to 5.93 h
AUC(0-t) ([1]; 800 mg, mean ± SD): 23800 ng·h/mL
Cmax ([1]; 800 mg, Cmax, mean ± SD): 3840 ± 2090 ng/mL
Tmax ([1]; 800 mg, Median): 2.98 h
Tmax ([1]; 800 mg, Range): 1.42 to 5.98 h
AUC12h, mean ± SD ([1]; 1000 mg): 15,700 ± 9100 ng h/mL
Cmax, mean ± SD ([1]; 1000 mg): 4990 ± 1210 ng/mL
half-life ([1]; 1000 mg): 9.11 ± 9.79 h
AUC(0-t) ([1]; 1000 mg, mean ± SD): 22400 ng·h/mL
Cmax ([1]; 1000 mg, Cmax, mean ± SD): 2630 ± 1450 ng/mL
Tmax ([1]; 1000 mg, Range): 2 to 3.97 h
Cmax ([1]; mean Cmax across dose groups): 1340 to 4990 ng/mL
AUC(0-t) ([1]; po, 100 mg, mean ± SD): 4610 ng·h/mL
Cmax ([1]; po, 100 mg, Cmax, mean ± SD): 1180 ng/mL
AUC(0-inf) ([1]; po, 1000 mg): 26900 ng·h/mL
efficacy in RAS-mutated patients [2]: not conclusive
tolerability [2]: good tolerability
